From paper PMC5571522, “Cryptotanshinone inhibition of mammalian target of rapamycin pathway is dependent on oestrogen receptor alpha in breast cancer” (Journal of Cellular and Molecular Medicine, 2017) come the findings set out here.

The structures appear in SMILES notation.

This assay deals with T1, oestrogen receptor alpha (ERα) (Homo sapiens, UniProt P03372).
T1 construct: gene ESR1
In words: HitHunter Estrogen Assay Kit competitive binding (enzyme fragment complementation); supported by ERE-luciferase inhibition in MCF-7 cells.

T1 sequence (P03372 whole entry): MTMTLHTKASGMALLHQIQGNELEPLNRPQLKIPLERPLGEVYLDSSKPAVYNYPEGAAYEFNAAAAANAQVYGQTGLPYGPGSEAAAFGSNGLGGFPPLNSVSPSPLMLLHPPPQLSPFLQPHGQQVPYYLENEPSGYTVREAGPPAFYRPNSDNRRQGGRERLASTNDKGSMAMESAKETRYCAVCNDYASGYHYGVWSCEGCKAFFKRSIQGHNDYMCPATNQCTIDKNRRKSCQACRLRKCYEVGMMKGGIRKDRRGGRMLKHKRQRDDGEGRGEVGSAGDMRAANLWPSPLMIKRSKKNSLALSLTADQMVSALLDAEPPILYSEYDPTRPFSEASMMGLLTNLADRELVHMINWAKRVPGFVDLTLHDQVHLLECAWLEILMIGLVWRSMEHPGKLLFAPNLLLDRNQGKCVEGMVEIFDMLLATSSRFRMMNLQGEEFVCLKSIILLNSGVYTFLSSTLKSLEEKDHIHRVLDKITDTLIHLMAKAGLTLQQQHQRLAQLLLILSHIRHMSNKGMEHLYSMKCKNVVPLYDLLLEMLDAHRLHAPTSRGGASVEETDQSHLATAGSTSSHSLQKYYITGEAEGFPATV

The EC50 is the concentration needed to bring the measured effect to its halfway point. Regarding `C[C@H]1COC2=C1C(=O)C(=O)c1c2ccc2c1CCCC2(C)C` [CPT, Cryptotanshinone], the EC50 is roughly 9.68 nM.
